Key:
Format in all cases: cell-based
Test Organism = experiment: Overall MIC over all test organisms
Source text: (§1) The Minimum Inhibitory concentration (MIC) is the lowest dilution which inhibits the growth of microorganism. MIC assays generate a value in μg/mL for the exact, lowest concentration of the antimicrobial agent that prevents the visible growth of bacteria. MIC was detected by using test tube method using different dilution in sterile tryptic soya broth (growth medium). (Ref.: https://www.ncbi.nlm.nih.gov/pmc/articles/PMC7470068/ this link describes about Test tube method of MIC)
(§2) • Working stock preparation: 1% in sterile D/W • Diluent: Sterile tryptic soy broth • Dilution range: 0.1% to 1%, further diluted to 100 ppm to 1000 ppm • Addition of culture: 0.1 mL of 18-24 hours old culture • Incubation temperature and time: • Bacteria: 37° C. for 24-48 hours • Y/M: 22.5° C. for 48-72 hours
(§3) The minimum inhibitory concentration (MIC) of Diamidoquat (DAQ), Benzalkonium chloride (BKC) and Esterquat (EQ) is shown in Table 1.
(§4) Antimicrobial efficacy of diamidoquat was studied as per MIC standard protocol.

C. albicans ATCC 10231 = experiment: MIC determination, test tube method; details: tryptic soy broth, 22.5° C. for 48-72 hours
Source text: as §1, §2, §4

E. coli ATCC 10142 = experiment: MIC determination, test tube method; details: tryptic soy broth, 37° C. for 24-48 hours
Source text: as §1, §2, §4

S. aureus ATCC 6538 = experiment: MIC determination, test tube method; details: tryptic soy broth, 37° C. for 24-48 hours
Source text: as §1, §2, §4

A. niger ATCC 16404 = experiment: MIC determination, test tube method; details: tryptic soy broth, 22.5° C. for 48-72 hours
Source text: as §1, §2, §4

P. aeruginosa ATCC 9372 = experiment: MIC determination, test tube method; details: tryptic soy broth, 37° C. for 24-48 hours
Source text: as §1, §2, §3, §4

Benzalkonium chloride [BKC]
0.6%: MIC (S. aureus ATCC 6538)
0.7%: Overall MIC (Test Organism) | MIC (C. albicans ATCC 10231) | MIC (E. coli ATCC 10142) | MIC (A. niger ATCC 16404) | MIC (P. aeruginosa ATCC 9372)
